From the NIST ThermoML archive (doi:10.1016/j.fluid.2008.06.004)
Where “and” joins values, the source holds several entries; their conditions need not be identical. Identical values can stand only once. Numbers after ± are expanded uncertainties.

Columns and labels:
[1] = Liquid; for mass density: 298.15 K, 101.33 kPa
[2] = refractive index (Na D-line) (dimensionless); details: 298.15 K; 101.33 kPa; Liquid; Standard Abbe refractometry

CCCO [propan-1-ol]
Details | mass density [kg/m3] | refractive index
[1] | 799.44 ± 0.23 | –
[2] | – | 1.38305 ± 0.00068

[1]
Details | vapor or sublimation pressure [kPa]
332.67 K | 20 ± 0.9
370.21 K | 101.3 ± 0.9

CC(C)O [propan-2-ol]
Details | mass density [kg/m3] | refractive index
[1] | 780.75 ± 0.24 | –
[2] | – | 1.37497 ± 0.00068

[1], Ebulliometric method (Recirculating still)
Details | vapor or sublimation pressure [kPa]
319.8 K | 20 ± 0.9
355.4 K | 101.3 ± 0.9

CCC(C)=O [butanone]
Details | mass density [kg/m3] | refractive index
[1] | 799.62 ± 0.35 | –
[2] | – | 1.37614 ± 0.00068

[1], Ebulliometric method (Recirculating still)
Details | vapor or sublimation pressure
308.22 K | 18.73 ± 0.43 kPa
309.55 K | 20 ± 0.4 kPa
310.48 K | 20.76 ± 0.42 kPa
312.56 K | 22.74 ± 0.44 kPa
313.8 K | 24.01 ± 0.46 kPa
316.39 K | 26.73 ± 0.47 kPa
318.16 K | 28.71 ± 0.53 kPa
319.63 K | 30.72 ± 0.56 kPa
321.2 K | 32.71 ± 0.58 kPa
324.08 K | 36.72 ± 0.6 kPa
326.86 K | 40.72 ± 0.64 kPa
329.31 K | 44.73 ± 0.72 kPa
331.49 K | 48.73 ± 0.77 kPa
333.61 K | 52.73 ± 0.8 kPa
335.64 K | 56.74 ± 0.84 kPa
337.53 K | 60.73 ± 0.88 kPa
339.37 K | 64.72 ± 0.93 kPa
341.07 K | 68.73 ± 0.98 kPa
342.7 K | 72.72 ± 1 kPa
344.29 K | 76.74 ± 1.1 kPa
345.74 K | 80.72 ± 1.1 kPa
347.19 K | 84.73 ± 1.1 kPa
348.59 K | 88.73 ± 1.2 kPa
349.95 K | 92.74 ± 1.2 kPa
350.49 K | 94.41 ± 1.3 kPa
351.4 K | 97.29 ± 1.3 kPa
352.68 K | 101.32 ± 1.3 kPa and 101.3 ± 1.3 kPa
354.04 K | 105.95 ± 1.4 kPa
355.29 K | 110.24 ± 1.4 kPa
356.39 K | 114.07 ± 1.4 kPa
357.91 K | 119.51 ± 1.5 kPa
359.12 K | 124.08 ± 1.5 kPa
360.32 K | 128.72 ± 1.6 kPa
361.22 K | 132.46 ± 1.6 kPa
362.08 K | 135.91 ± 1.6 kPa

CCO [ethanol]
Details | mass density [kg/m3] | refractive index
[1] | 786.47 ± 0.5 | –
[2] | – | 1.35939 ± 0.00068

[1], Ebulliometric method (Recirculating still)
Details | vapor or sublimation pressure [kPa]
315.41 K | 20 ± 0.9
351.46 K | 101.3 ± 0.9
